Data as given in patent publication US10889849B2, “Oxidized glutathione assay” (PROMEGA CORPORATION, priority 2010, dated 2021).

How the values were obtained:
Format in all cases: cell-based
[1] = system: Rat hepatocytes; experiment: Determination of GSH:GSSG ratio in rat hepatocytes; conditions: Rat hepatocytes, 20,000 cells/well, 60 minutes with 40 uM menadione
Method: (§1) The assay is optimized for low cell densities such as HeLa or HepG2 cells at 5,000-10,000 cells per well and hepatocytes at 10,000 to 20,000 cells/well. HeLa or HepG2 cells were plated on Corning Costar 3903 96-well flat bottom tissue culture-treated white with clear bottom. Hepatocytes were plated on BD BioCoat™ 4650 96-well Collagen 1 Cellware. Hepatocytes were cultured with vendor recommended hepatocyte media. If clear walled tissue culture plates are used, a transfer step must be performed after Luciferase Detection Reagent (LDR) addition to get the reactions into luminometer plates. Plate cells and incubate overnight at 37° C. in a 5% CO2 culture incubator.
Menadione is a Reactive Oxygen Species (ROS) inducer and is used as a positive control. 40 μM Menadione was prepared in Krebs-Ringer, Krebs-Henseleit, or Hank's Balanced Salts (HBSS) buffers. Other buffers […] to dilute the Menadione as components of cell culture media, such as serum, phenol red, and cysteine, can interfere with the assay chemistry. No treatment controls (vehicle only) were performed by exchanging the culture media on the cells with buffer+ vehicle at the same time as treating the cells with Menadione. […]
(§2) Compound treatment was removed and discarded from the adherent cells. […] Again, the plated was shook briefly, incubated at room temperature for 10 min, and luminescence read.
(§3) The […] is calculated by dividing the moles of GSH in a sample by the moles of GSSG in a sample. Because each mole of GSSG produces two moles of GSH, and the assay produces a signal from all of the GSH produced by reduction of GSSG, a 2-fold adjustment is required in the number of moles of GSH quantified by the GSH standard curve.
(§4) For background, the luminescence (RLUs) generated from no cell control or 0 μM GSH from the standard curve was used. […] The GSH/GSSG ratio for untreated cells was calculated using the formula: […]
ii: Rat hepatocytes, 20,000 cells/well, were treated as in i. GSSG and GSH were detected by the method described in A. The ratio GSH/GSSG was calculated as described in B.

[2] = system: HeLa cells; experiment: Determination of GSH:GSSG ratio in HeLa cells; conditions: HeLa cells, 5,000 cells/well, 60 minutes with 40 uM menadione
Method: as §1
(§5) Menadione is a Reactive Oxygen Species (ROS) inducer and is used as a positive control. 40 μM Menadione was prepared in Krebs-Ringer, Krebs-Henseleit, or Hank's Balanced Salts (HBSS) buffers. Other buffers […] to dilute the Menadione as components of cell culture media, such as serum, phenol red, and cysteine, can interfere with the assay chemistry. No treatment controls (vehicle only) were performed by exchanging the culture media on the cells with buffer+ vehicle at the same time as treating the cells with Menadione.
(§6) The below reagent was prepared for measurement of GSSG. […]
as §2, §3, §4
i. […] GSSG and GSH were detected by the method described in A. The ratio GSH/GSSG was calculated as described in B.

[3] = system: A549 cells; experiment: Measurements of cell lysis (LDH release and ATP levels); conditions: menadione treatment, data not shown
Text: From the data in Table 7 and FIG. 9, it is clear that measurement of GSSG in the media alone would have indicated some effect of the menadione treatment on the cells.

[4] = system: HepG2 cells; experiment: Determination of GSH:GSSG ratio in HepG2 cells; conditions: HepG2 cells, 5,000 cells/well, 60 minutes with 40 uM menadione
Method: as §1, §5, §6, §2, §3, §4
iii. […] GSSG and GSH were detected by the method described in A. The ratio GSH/GSSG was calculated as described in B.

[5] = system: A549 cells; experiment: Detection of reactive oxygen effects by sampling media (GSSG and GSH in cells and media); conditions: 1 hour
Method: A549 cells were plated at a density of 5,000 cells per well in a 96-well tissue culture plate in 100 ul of DMEM with 10% fetal calf serum and incubated for 48 hours at 37° C. with 10% CO2. After incubation, the media was removed, discarded, and replaced with HBSS buffer with or without 40 uM menadione. The plate was then incubated for 1 hour at 37° C. with 10% CO2.
After the 1 hour treatment, the HBSS buffer from the cells was transferred to a fresh, 96-well plate. The cells were then given 100 ul of fresh HBSS buffer and a concentrated solution of PLB with or without NEM. The following conditions (in triplicate) resulted from these manipulations: • 1. Cell GSH and GSSG were measured from the lysate of cells where the vehicle or menadione treatment with HBSS buffer was removed prior to lysis. • 2. Media GSH and GSSG were measure from the HBSS buffer transferred from the cells. • 3. Total GSH and total GSSG were measured from the lysate of cells treated with HBSS buffer where the HBSS buffer was not removed prior to addition of PLB.
For measurement of GSSG, samples were given a mixture containing GST-22, 25 mM NEM, and 1× Passive Lysis Buffer. For measurement of GSH, samples were given a mixture containing GST-22 and 1× Passive Lysis Buffer. Samples were incubated for 5 minutes at room temperature, and 25 μl LDR with 100 mM DTT and GST added. Samples were then incubated for 30 minutes at room temperature, and 150 μl LDR added. Luminescence was detected after 15 minute room temperature incubation.
It should be noted that one could expect the total glutathione species from the media and the cells to be about equal to the total well measurement. This calculation is shown in the third row of Table 7. The ratio of GSH to GSSG was also determined (FIG. 10).

[6] = system: Jurkat cells; experiment: Determination of GSH:GSSG ratio in Jurkat cells; conditions: 60 minutes with 40 uM menadione
Method: Suspension cells, such as Jurkat or […], are washed in Krebs-Ringer, Krebs-Henseleit, or Hank's Balanced Salts (HBSS) buffers to remove traces of medium and serum. Cells are then counted and diluted in one of the above buffers at the desired density. For Jurkat cells, 10,000 to 20,000 cells/well were used. 20 μl of cell suspension (at the desired density) were then added to wells of a 96-well plate. Enough wells with cells were plated for test compound treatment, vehicle-only treatment and no treatment controls. […]
as §2, §3, §4
iv. […] GSSG and GSH were detected by the method described in A. The ratio GSH/GSSG was calculated as described in B

[7] = 40 uM menadione in HBSS, HBSS buffer transferred from the cells
[8] = 40 uM menadione in HBSS, lysate of cells, buffer removed prior to lysis
[9] = 40 uM menadione, HBSS buffer not removed prior to addition of PLB
[10] = 40 uM menadione, calculated sum of cell and media

SMILES: CC1=CC(=O)c2ccccc2C1=O [Menadione]
- Ratio GSH/GSSG, treated [1]: 1.1
- Treated Net RLU, GSH [1]: 10722488 RLU
- Treated Net RLU, GSSG [1]: 6900404 RLU
- Ratio GSH/GSSG, treated [2]: 2.2
- Treated Net RLU, GSH [2]: 12364719 RLU
- Treated Net RLU, GSSG [2]: 5894364 RLU
- Cell lysis (LDH release and ATP levels) [3]: did not suggest that any lysis had taken place
- Ratio GSH/GSSG, treated [4]: 1.5
- Treated Net RLU, GSH [4]: 4162074 RLU
- Treated Net RLU, GSSG [4]: 2364652 RLU
- GSH, averaged RLU, Media [5, 7]: 3,491,077 RLU
- GSSG, averaged RLU, Media [5, 7]: 2,494,444 RLU
- GSH, averaged RLU, Cell [5, 8]: 10,613,488 RLU
- GSSG, averaged RLU, Cell [5, 8]: 464,099 RLU
- GSH, averaged RLU, Total Well [5, 9]: 12,903,498 RLU
- GSSG, averaged RLU, Total Well [5, 9]: 3,189,598 RLU
- GSH, RLU, Total (Cell + Media) [5, 10]: 14,104,565 RLU
- GSSG, RLU, Total (Cell + Media) [5, 10]: 2,958,543 RLU
- Ratio-Treated (GSH/GSSG) ([6]; Jurkat cells, 10,000 cells/well): 3.8
- Ratio-Treated (GSH/GSSG) ([6]; Jurkat cells, 20,000 cells/well): 3.6
